According to patent US8748121B2, “GSH adducts and uses thereof” (The Trustees of the University of Pennsylvania, priority 2006, dated 2014):
Like-named read-outs stand apart in the source and are kept apart here.

Key:
[1] = test system: EA.hy 926 endothelial cells; assay: Analysis of GSH adducts (TOG) in ONE-treated endothelial cells by stable isotope dilution LC-MRM/MS; format: cell-based; conditions: for detection of the adduct in cells treated with ONE: EA.hy 926 cells
Protocol: EA.hy 926 cells were incubated until they reached 70-80% confluence (approximately 2×10^6 cells). DMEM was removed and replaced with FBS-free DMEM prior to treatment with varying concentrations of ONE dissolved in ethanol. The final concentration of ethanol in the culture medium was <0.1%. […] […] […] The cell lysate flow-through and cell media (40 μL of each) were each analyzed in duplicate by LC-MRM/MS using gradient system 4 on the Finnigan Quantum Ultra AM mass spectrometer. The internal standard [^2H3]-ONE-GSH adduct IIb was prepared from 9-[2H3]-ONE and GSH. Quantification of endogenous ONE-GSH adduct IIb was performed from the peak area ratios for the transition m/z 426 [ONE-GSH adduct IIb, protonated molecule (MH+)]→m/z 280 (MH+—CONHCH2CO2H—CONH2) compared to the transition m/z 429 (MH^+, [^2H3]-ONE-GSH adduct IIb internal standard)→m/z 283 (MH+—CONHCH2CO2H—CONH2). Intracellular and extracellular ONE-GSH adduct IIb concentrations were determined by interpolation from a standard curve prepared by adding a fixed amount of [^2H3]-ONE-GSH adduct IIb (10 ng) to increasing amounts of authentic ONE-GSH adduct IIb in the blank lysis buffer or incubation medium (range 0.2 ng/mL to 50 ng/mL). A typical regression line for a standard curve of area ratios compared with ONE-GSH adduct IIb concentrations [ng/mL] in the blank lysis buffer was y) 0.065x +0.0045 (r^2=0.9999).

[2] = test system: glutathione-S-transferase (GST); conditions: GSH 1 mM, ONE 1 mM
Protocol: GSH (1 or 4 mM) was incubated with 4-ONE (1 mM or 100 μM) in 100 mM potassium phosphate buffer (200 μL) containing 1 mM EDTA (pH 6.5). Reactions were also conducted in the presence of equine or rat GST (10 or 100 units). Similar reactions were performed with 4 mM GSH and 2-[2 Hi]-ONE, 3-[2H]-ONE, or 2,3-[^2H2]-ONE (1 mM). Reaction mixtures were incubated at 37° C. for 1 h and then filtered through an Amicon Ultra-4 5,000 filter, and a 20 μL aliquot was analyzed by LC-MS using gradient system 1.
TOG and ONE were monitored by UV (224 nm) from the reaction between GSH (1 mM) and ONE (1 mM) in the presence of GST (10 or 100 units) for 24 h.

[3] = test system: EA.hy 926 endothelial cells; assay: Analysis of GSH adducts in endothelial cells subjected to oxidative stress (t-BuOOH/FeII); format: cell-based; conditions: 10 μM t-BuOOH/500 μM FeII
Protocol: EA.hy 926 cells were incubated until they reached 70-80% confluence (approximately 2×10^6 cells). DMEM was removed and replaced with FBS-free DMEM prior to treatment with t-BuOOH (10 μM) and Fe^II (500 μM, ferrous sulfate). Cells were collected after 30 min, and intracellular GSH adduct concentrations were quantified by stable isotope dilution LC-MRM/MS as described above. Channels corresponding to the specific MRM transitions of the ONE-GSH adduct IIb and its trideuterated internal standard were monitored as described above. MRM transitions for HNE- and ONO-GSH adducts m/z 464 (MH^+)→m/z 308 (MH^+—C9H16O2) were also monitored. Quantification of diastereomeric HNE-GSH adducts was conducted by determining the ratio of the area of the HNE-GSH adducts signal to the area of [^2H3]-ONE-GSH adduct IIb. Intracellular concentrations of HNE-GSH adducts were determined with reference to a standard curve constructed in lysis buffer using authentic standards of unlabeled HNE-GSH adducts as described above for the ONE-GSH adduct IIb.

[4] = incubated with 1% TFA, 37° C., 24 h
Protocol: A portion of ONE-GSH adduct IIb was then incubated with 1% TFA at 37° C. for 24 h. The reaction mixture (20 μL) was analyzed by LC-MS using gradient system 1.

## CCCCCC(=O)/C=C/C=O [ONE, 4-oxo-2(E)-nonenal]
[1]; EA.hy 926 endothelial cells
  ONE concentration at which the cells were no longer viable: > 20 /<M
[1]; LC-MRM/MS
  ONE concentration at which TOG was detected in the extracellular milieu: ≥ 1 µM
  ONE concentration at which intracellular TOG could be quantified: ≥ 5 /iM
[2]
  reaction rate with 100 units of GST relative to 10 units: 6 times
[2]; 10 units of GST, after 24 h
  ONE still left in the reaction mixture: 6%
[2]; 10 units of GST, by 4 h
  ONE consumed: 58%
[2]; 100 units of GST, after 4 h
  consumption of ONE: 93%
[2]; 100 units of GST, after 24 h
  ONE remaining: not detectable
[2]; 100 units of GST, by 40 min
  ONE consumed: 52%

## CCCCCc1c2ccn1C(C(=O)O)CCC(=O)NC(C(=O)NCC(=O)O)CSc1ccn(c1CCCCC)C(C(=O)O)CCC(=O)NC(C(=O)NCC(=O)O)CS2 (stereo not drawn) [adduct III, 7,19-bis-(carboxymethyl-carbamoyl)-5,17-dioxo-25,26-dipentyl-9,21-dithia-1,6,13,18-tetraaza-tricyclo[20.2.1.110.13]hexacosa-10(26),11,22(25),23-tetraene-2,14-dicarboxylic acid]
[1]
  detection of the adduct in cells treated with ONE: unable to detect
[3]
  detection of the adduct in cells subjected to oxidative stress: unable to detect

## CCCCCc1c(SCC(NC(=O)CCC(N)C(=O)O)C(=O)NCC(=O)O)ccn1C(CCC(=O)NC(CS)C(=O)NCC(=O)O)C(=O)O (stereo not drawn) [adduct Ia, 2-amino-4-[2-(1-{1-carboxy-3-[1-(carboxymethyl-carbamoyl)-2-mercapto-ethylcarbamoyl]-propyl}-2-pentyl-1H-pyrrol-3-ylsulfanyl)-1-(carboxymethyl-carbamoyl)-ethylcarbamoyl]-butyric acid]
[1]
  detection of the adduct in cells treated with ONE: unable to detect
[3]
  detection of the adduct in cells subjected to oxidative stress: unable to detect

## (2S,7R)-7-[iV-(carboxymethyl)carbamoyl]-5-oxo-12-pentyl-9-thia-1,6-diazabicyclo[8.2.1]trideca-10(13),11-diene-2-carboxylic acid [TOG]
[1]; 20 fiM ONE for 30 min
  TOG as share of the intracellular total GSH at the start of the incubation (10 nmol): 15.4%
  total TOG: 1.54 nmol
[1]; after the addition of 20 μM ONE (printed 20 μL; 20/<M)
  intracellular concentration of TOG: 46.1 µM
[1]; after the addition of ONE
  intracellular TOG, maximum of dose-dependent increase: 46.1 pmol/2×10^6 cells
[1]; cells incubated with 5 fiU ONE for 0.5 h
  concentration of intracellular TOG: 2.8 µM
[2]; 10 units of GST
  incubation time to maximal formation of TOG: 24 h
[2]; 100 units of GST
  incubation time to maximal formation of TOG: 4 h
[4]
  conversion to dehydrated product (adduct IV): quantitative conversion
